Source: patent publication US20240099996A1, “METHODS FOR TREATING CANCER” (Radius Pharmaceuticals, Inc., priority 2015, published 2024)
Where a name gives a salt, the structure may show the parent alone.

Assay: Phase 1 dose escalation study in healthy post-menopausal women, treatment related AEs
Type: in vivo
Method: The subjects were 40-75 years old with BMI of 18.0-30 kg/m^2. Subjects having evidence of clinically relevant pathology, increased risk of stroke or of history venous thromboembolic events, or use of concomitant medication less than 14 days prior to admission to clinical research center (paracetamol allowed up to 3 days prior) were excluded. Dosing
The subjects were treated with placebo or at least one dose p.o., q.d. after a light breakfast for 7 days at dose levels of 200 mg, 500 mg, 750 mg and 1000 mg, respectively.

Q: What does the source list for `CCNCCc1ccc(CN(CC)c2cc(OC)ccc2[C@@H]2CCc3cc(O)ccc3C2)cc1` [RAD1901, (6R)-6-(2-(N-(4-(2-(ethylamino)ethyl)benzyl)-N-ethylamino)-4-methoxyphenyl)-5,6,7,8-tetrahydronaphthalen-2-ol dihydrochloride]?
A: Abdominal discomfort Gr1 (200 mg, N = 15): 3 (20) n(%); Abdominal discomfort Gr2 (200 mg, N = 15): 0 n(%); Abdominal discomfort Gr3 (200 mg, N = 15): 0 n(%); Abdominal distension Gr1 (200 mg, N = 15): 1 (7) n(%); Abdominal distension Gr2 (200 mg, N = 15): 1 (7) n(%); Abdominal distension Gr3 (200 mg, N = 15): 0 n(%); Abdominal pain Gr1 (200 mg, N = 15): 2 (13) n(%); Abdominal pain Gr2 (200 mg, N = 15): 2 (13) n(%); Abdominal pain Gr3 (200 mg, N = 15): 0 n(%); Diarrhoea Gr1 (200 mg, N = 15): 0 n(%); Diarrhoea Gr2 (200 mg, N = 15): 0 n(%); Diarrhoea Gr3 (200 mg, N = 15): 0 n(%); Dizziness Gr1 (200 mg, N = 15): 1 (7) n(%); Dizziness Gr2 (200 mg, N = 15): 0 n(%); Dizziness Gr3 (200 mg, N = 15): 0 n(%); Dyspepsia Gr1 (200 mg, N = 15): 3 (20) n(%); Dyspepsia Gr2 (200 mg, N = 15): 0 n(%); Dyspepsia Gr3 (200 mg, N = 15): 0 n(%); Dysphagia Gr1 (200 mg, N = 15): 0 n(%); Dysphagia Gr2 (200 mg, N = 15): 0 n(%); Dysphagia Gr3 (200 mg, N = 15): 0 n(%); Flatulance Gr1 (200 mg, N = 15): 2 (13) n(%); Flatulance Gr2 (200 mg, N = 15): 0 n(%); Flatulance Gr3 (200 mg, N = 15): 0 n(%); Headache Gr1 (200 mg, N = 15): 3 (20) n(%); Headache Gr2 (200 mg, N = 15): 0 n(%); Headache Gr3 (200 mg, N = 15): 0 n(%); Hiccups Gr1 (200 mg, N = 15): 1 (7) n(%); Hiccups Gr2 (200 mg, N = 15): 0 n(%); Hiccups Gr3 (200 mg, N = 15): 0 n(%); Hot flush Gr1 (200 mg, N = 15): 2 (13) n(%); Hot flush Gr2 (200 mg, N = 15): 0 n(%); Hot flush Gr3 (200 mg, N = 15): 0 n(%); Myalgia Gr1 (200 mg, N = 15): 2 (13) n(%); Myalgia Gr2 (200 mg, N = 15): 1 (7) n(%); Myalgia Gr3 (200 mg, N = 15): 0 n(%); Nausea Gr1 (200 mg, N = 15): 5 (33) n(%); Nausea Gr2 (200 mg, N = 15): 0 n(%); Nausea Gr3 (200 mg, N = 15): 0 n(%); Odynophagia Gr1 (200 mg, N = 15): 2 (13) n(%); Odynophagia Gr2 (200 mg, N = 15): 0 n(%); Odynophagia Gr3 (200 mg, N = 15): 0 n(%); Oesophageal pain Gr1 (200 mg, N = 15): 0 n(%); Oesophageal pain Gr2 (200 mg, N = 15): 2 (13) n(%); Oesophageal pain Gr3 (200 mg, N = 15): 0 n(%); Salivary hypersecretion Gr1 (200 mg, N = 15): 2 (13) n(%); Salivary hypersecretion Gr2 (200 mg, N = 15): 0 n(%); Salivary hypersecretion Gr3 (200 mg, N = 15): 0 n(%); Sensation of a foreign body Gr1 (200 mg, N = 15): 2 (13) n(%); Sensation of a foreign body Gr2 (200 mg, N = 15): 0 n(%); Sensation of a foreign body Gr3 (200 mg, N = 15): 0 n(%); Vomiting Gr1 (200 mg, N = 15): 2 (13) n(%); Vomiting Gr2 (200 mg, N = 15): 0 n(%); Vomiting Gr3 (200 mg, N = 15): 0 n(%); Abdominal discomfort Gr1 (500 mg, N = 14): 0 n(%); Abdominal discomfort Gr2 (500 mg, N = 14): 0 n(%); Abdominal discomfort Gr3 (500 mg, N = 14): 0 n(%); Abdominal distension Gr1 (500 mg, N = 14): 1 n(%); Abdominal distension Gr2 (500 mg, N = 14): 0 n(%); Abdominal distension Gr3 (500 mg, N = 14): 0 n(%); Abdominal pain Gr1 (500 mg, N = 14): 3 n(%); Abdominal pain Gr2 (500 mg, N = 14): 0 n(%); Abdominal pain Gr3 (500 mg, N = 14): 0 n(%); Diarrhoea Gr1 (500 mg, N = 14): 3 n(%); Diarrhoea Gr2 (500 mg, N = 14): 0 n(%); Diarrhoea Gr3 (500 mg, N = 14): 0 n(%); Dizziness Gr1 (500 mg, N = 14): 2 n(%); Dizziness Gr2 (500 mg, N = 14): 0 n(%); Dizziness Gr3 (500 mg, N = 14): 0 n(%); Dyspepsia Gr1 (500 mg, N = 14): 5 n(%); Dyspepsia Gr2 (500 mg, N = 14): 2 (14) n(%); Dyspepsia Gr3 (500 mg, N = 14): 0 n(%); Dysphagia Gr1 (500 mg, N = 14): 1 n(%); Dysphagia Gr2 (500 mg, N = 14): 2 (14) n(%); Dysphagia Gr3 (500 mg, N = 14): 0 n(%); Flatulance Gr1 (500 mg, N = 14): 2 n(%); Flatulance Gr2 (500 mg, N = 14): 0 n(%); Flatulance Gr3 (500 mg, N = 14): 0 n(%); Headache Gr1 (500 mg, N = 14): 1 n(%); Headache Gr2 (500 mg, N = 14): 1 (7) n(%); Headache Gr3 (500 mg, N = 14): 0 n(%); Hiccups Gr1 (500 mg, N = 14): 4 n(%); Hiccups Gr2 (500 mg, N = 14): 0 n(%); Hiccups Gr3 (500 mg, N = 14): 0 n(%); Hot flush Gr1 (500 mg, N = 14): 6 n(%); Hot flush Gr2 (500 mg, N = 14): 0 n(%); Hot flush Gr3 (500 mg, N = 14): 0 n(%); Myalgia Gr1 (500 mg, N = 14): 0 n(%); Myalgia Gr2 (500 mg, N = 14): 1 (7) n(%); Myalgia Gr3 (500 mg, N = 14): 0 n(%); Nausea Gr1 (500 mg, N = 14): 3 n(%); Nausea Gr2 (500 mg, N = 14): 2 (14) n(%); Nausea Gr3 (500 mg, N = 14): 0 n(%); Odynophagia Gr1 (500 mg, N = 14): 1 n(%); Odynophagia Gr2 (500 mg, N = 14): 1 (7) n(%); Odynophagia Gr3 (500 mg, N = 14): 0 n(%); Oesophageal pain Gr1 (500 mg, N = 14): 1 n(%); Oesophageal pain Gr2 (500 mg, N = 14): 3 (21) n(%); Oesophageal pain Gr3 (500 mg, N = 14): 0 n(%); Salivary hypersecretion Gr1 (500 mg, N = 14): 2 n(%); Salivary hypersecretion Gr2 (500 mg, N = 14): 0 n(%); Salivary hypersecretion Gr3 (500 mg, N = 14): 0 n(%); Sensation of a foreign body Gr1 (500 mg, N = 14): 1 n(%); Sensation of a foreign body Gr2 (500 mg, N = 14): 0 n(%); Sensation of a foreign body Gr3 (500 mg, N = 14): 0 n(%); Vomiting Gr1 (500 mg, N = 14): 1 n(%); Vomiting Gr2 (500 mg, N = 14): 5 (36) n(%); Vomiting Gr3 (500 mg, N = 14): 1 (7) n(%); Abdominal discomfort Gr1 (750 mg, N = 8): 1 (13) n(%); Abdominal discomfort Gr2 (750 mg, N = 8): 1 (13) n(%); Abdominal discomfort Gr3 (750 mg, N = 8): 0 n(%); Abdominal distension Gr1 (750 mg, N = 8): 1 (13) n(%); Abdominal distension Gr2 (750 mg, N = 8): 0 n(%); Abdominal distension Gr3 (750 mg, N = 8): 0 n(%); Abdominal pain Gr1 (750 mg, N = 8): 1 (13) n(%); Abdominal pain Gr2 (750 mg, N = 8): 0 n(%); Abdominal pain Gr3 (750 mg, N = 8): 0 n(%); Diarrhoea Gr1 (750 mg, N = 8): 0 n(%); Diarrhoea Gr2 (750 mg, N = 8): 0 n(%); Diarrhoea Gr3 (750 mg, N = 8): 0 n(%); Dizziness Gr1 (750 mg, N = 8): 1 (13) n(%); Dizziness Gr2 (750 mg, N = 8): 0 n(%); Dizziness Gr3 (750 mg, N = 8): 0 n(%); Dyspepsia Gr1 (750 mg, N = 8): 4 (50) n(%); Dyspepsia Gr2 (750 mg, N = 8): 0 n(%); Dyspepsia Gr3 (750 mg, N = 8): 0 n(%); Dysphagia Gr1 (750 mg, N = 8): 3 (38) n(%); Dysphagia Gr2 (750 mg, N = 8): 1 (13) n(%); Dysphagia Gr3 (750 mg, N = 8): 0 n(%); Flatulance Gr1 (750 mg, N = 8): 1 (13) n(%); Flatulance Gr2 (750 mg, N = 8): 0 n(%); Flatulance Gr3 (750 mg, N = 8): 0 n(%); Headache Gr1 (750 mg, N = 8): 3 (38) n(%); Headache Gr2 (750 mg, N = 8): 0 n(%); Headache Gr3 (750 mg, N = 8): 0 n(%); Hiccups Gr1 (750 mg, N = 8): 2 (25) n(%); Hiccups Gr2 (750 mg, N = 8): 0 n(%); Hiccups Gr3 (750 mg, N = 8): 0 n(%); Hot flush Gr1 (750 mg, N = 8): 2 (25) n(%); Hot flush Gr2 (750 mg, N = 8): 0 n(%); Hot flush Gr3 (750 mg, N = 8): 0 n(%); Myalgia Gr1 (750 mg, N = 8): 1 (13) n(%); Myalgia Gr2 (750 mg, N = 8): 0 n(%); Myalgia Gr3 (750 mg, N = 8): 0 n(%); Nausea Gr1 (750 mg, N = 8): 2 (25) n(%)
